From patent EP1147080B1 (Wyeth Holdings Corporation, priority 1999, dated 2000)

Target: TNF-α converting enzyme (TACE) (Homo sapiens, UniProt P78536)
Test: Test procedure for measuring TACE inhibition (fluorescent peptidyl substrate)
Format: biochemical
Conditions: Table 1

Chain of TNF-α converting enzyme (TACE) (P78536 215-824): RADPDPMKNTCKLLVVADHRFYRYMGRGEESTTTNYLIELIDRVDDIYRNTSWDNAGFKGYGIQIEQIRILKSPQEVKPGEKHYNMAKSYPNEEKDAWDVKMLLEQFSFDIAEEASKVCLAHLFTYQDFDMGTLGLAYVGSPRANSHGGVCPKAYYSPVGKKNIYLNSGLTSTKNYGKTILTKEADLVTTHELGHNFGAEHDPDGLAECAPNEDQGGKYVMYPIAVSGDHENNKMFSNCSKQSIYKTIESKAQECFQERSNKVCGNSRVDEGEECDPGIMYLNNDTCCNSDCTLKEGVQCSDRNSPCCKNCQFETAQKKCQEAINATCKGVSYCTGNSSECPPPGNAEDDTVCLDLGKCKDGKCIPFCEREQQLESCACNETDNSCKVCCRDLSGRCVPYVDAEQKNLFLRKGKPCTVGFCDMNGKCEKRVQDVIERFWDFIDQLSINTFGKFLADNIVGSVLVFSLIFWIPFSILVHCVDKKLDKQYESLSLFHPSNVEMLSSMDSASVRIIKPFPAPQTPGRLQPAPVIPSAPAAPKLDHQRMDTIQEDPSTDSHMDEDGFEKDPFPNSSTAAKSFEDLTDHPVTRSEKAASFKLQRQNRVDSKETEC

| SMILES | IC50 |
| --- | --- |
| CC#CCOc1ccc(SC(CCCCNC(=O)CNC(=O)CN2C(=O)c3ccccc3C2=O)C(=O)NO)cc1 (centres unmarked) [Example 45, 2-(4-But-2-ynyloxy-phenylsulfanyl)-6-{2-[2-(1,3-dioxo-1,3-dihydro-isoindol-2-yl)-acetylamino]-acetylamino}-hexanoic acid hydroxyamide] | 16.1 nM |
| CC#CCOc1ccc(SC(CCCCNC(=O)Cc2csc3ccccc23)C(=O)NO)cc1 (centres unmarked) [Example 22, 6-(2-Benzo[b]thiophen-3-yl-acetylamino)-2-(4-but-2-ynyloxy-phenylsulfanyl)-hexanoic acid hydroxyamide] | 32.8 nM |
| CC#CCOc1ccc(S(=O)(=O)C(CCCCNC(=O)CNC(=O)C(c2ccccc2)c2ccccc2)C(=O)NO)cc1 (centres unmarked) [Example 62, 2-(4-But-2-ynyloxy-benzenesulfonyl)-6-(2-diphenylacetylamino-acetylamino)-hexanoic acid hydroxyamide] | 31.9 nM |
| CC#CCOc1ccc(SC(CCCCNC(=O)C2c3ccccc3Oc3ccccc32)C(=O)NO)cc1 (centres unmarked) [Example 19, 9H-Xanthene-9-carboxylic acid [5-(4-but-2-ynyloxy-phenylsulfanyl)-5-hydroxycarbamoylpentyl]-amide] | 43.3 nM |
| CC#CCOc1ccc([S+]([O-])C(CCCCNC(=O)CN2C(=O)c3ccccc3C2=O)C(=O)NO)cc1 (centres unmarked) [Example 24, 2-(4-But-2-ynyloxy-benzenesulfinyl)-6-[2-(1,3-dioxo-1,3-dihydro-isoindol-2-yl)-acetylamino]-hexanoic acid hydroxyamide] | 30 nM |
| CC#CCOc1ccc([S+]([O-])C(CCCCNC(=O)CNC(=O)CN2C(=O)c3ccccc3C2=O)C(=O)NO)cc1 (centres unmarked) [Example 55, 2-(4-But-2-ynyloxy-benzenesulfinyl)-6-[2-(1,3-dioxo-1,3-dihydro-isoindol-2-yl)-acetylammo]-hexanoic acid hydroxyamide] | 38.5 nM |
| CC#CCOc1ccc(SC(CCCCNC(=O)CNC(=O)C2c3ccccc3Oc3ccccc32)C(=O)NO)cc1 (centres unmarked) [Example 48, 9H-Xanthene-9-carboxylic acid {[5-(4-but-2-ynyloxy-phenylsulfanyl)-5-hydroxycarbamoylpentylcarbamoyl]-methyl}-amide] | 82.1 nM |
| CC#CCOc1ccc(S(=O)(=O)C(CCCCNC(=O)CNC(=O)Cc2csc3ccccc23)C(=O)NO)cc1 (centres unmarked) [Example 69] | 29.2 nM |
| CC#CCOc1ccc(SC(CCCCNC(=O)CNC(=O)c2ccc3ccccc3n2)C(=O)NO)cc1 (centres unmarked) [Example 44, Quinoline-2-carboxylic acid {[5-(4-but-2-ynyloxy-phenylsulfanyl)-5-hydroxycarbamoylpentylcarbamoyl]-methyl}-amide] | 32.1 nM |
| CC#CCOc1ccc([S+]([O-])C(CCCCNC(=O)CCCc2cccs2)C(=O)NO)cc1 (centres unmarked) [Example 28, 2-(4-But-2-ynyloxy-benzenesulfinyl)-6-(4-thiophen-2-yl-butyrylamino)-hexanoic acid hydroxyamide] | 26.6 nM |
| CC#CCOc1ccc(SC(CCCCNC(=O)c2cnc3ccccc3c2)C(=O)NO)cc1 (centres unmarked) [Example 17, Quinoline-3-carboxylic acid [5-(4-but-2-ynyloxy-phenylsulfanyl)-5-hydroxycarbamoylpentyl]-amide] | 43.7 nM |
| CC#CCOc1ccc(S(=O)(=O)C(CCCCNC(=O)CNC(=O)Cc2c[nH]c3ccccc23)C(=O)NO)cc1 (centres unmarked) [Example 70, 2-(4-But-2-ynyloxy-benzenesulfonyl)-6-[2-(2-1H-indol-3-yl-acetylamino)-acetylamino]-hexanoic acid hydroxyamide] | 88.1 nM |
| CC#CCOc1ccc(S(=O)(=O)C(CCCCNC(=O)C2c3ccccc3Oc3ccccc32)C(=O)NO)cc1 (centres unmarked) [Example 39, 9H-Xanthene-9-carboxylic acid [5-(4-but-2-ynyloxy-benzenesulfonyl)-5-hydroxycarbamoyl-pentyl]-amide] | 65.1 nM |
| CC#CCOc1ccc(S(=O)(=O)C(CCCCNC(=O)c2ccc3ccccc3n2)C(=O)NO)cc1 (centres unmarked) [Example 35, Quinoline-2-carboxylic acid [5-(4-but-2-ynyloxy-benzenesulfonyl)-5-hydroxycarbamoylpentyl]-amide] | 68.3 nM |
